What was measured:
[1] = mRNA encapsulation efficiency of lipid nanoparticles; type: physicochemical; conditions: for Encapsulation efficiency (EE): LNP with cationic lipid CL-A
Excerpt: In embodiments, the lipid nanoparticle encapsulates a nucleic acid, optionally an mRNA encoding a peptide or protein. In embodiments, the lipid nanoparticle encapsulates an mRNA encoding a peptide or protein, optionally for use in a vaccine. In embodiments, the peptide is an antigen. As used herein, the phrase “encapsulation percentage” refers to the fraction of therapeutic agent (e.g. mRNA) that is effectively encapsulated within a liposomal-based vehicle (e.g. a lipid nanoparticle) relative to the initial fraction of therapeutic agent present in the lipid phase. In embodiments, the lipid nanoparticles have an encapsulation percentage for mRNA of at least 50%. In embodiments, the lipid nanoparticles have an encapsulation percentage for mRNA of at least 55%. In embodiments, the lipid nanoparticles have an encapsulation percentage for mRNA of at least 60%. In embodiments, the lipid nanoparticles have an encapsulation percentage for mRNA of at least 65%. In embodiments, the lipid nanoparticles have an encapsulation percentage for mRNA of at least 70%. In embodiments, the lipid nanoparticles have an encapsulation percentage for mRNA of at least 75%. In embodiments, the lipid nanoparticles have an encapsulation percentage for mRNA of at least 80%. In embodiments, the lipid nanoparticles have an encapsulation percentage for mRNA of at least 85%. In embodiments, the lipid nanoparticles have an encapsulation percentage for mRNA of at least 90%. In embodiments, the lipid nanoparticles have an encapsulation percentage for mRNA of at least 95%. In embodiments, the encapsulation percentage is calculated by performing the Ribogreen assay (Invitrogen) with and without the presence of 0.1% Triton-X 100.
The lipid nanoparticles in the examples of the present invention were formulated using Process A of WO 2018/089801 (see, e.g., Example 1 and FIG. 1 of WO 2018/089801). Process A (“A”) relates to a conventional method of encapsulating mRNA by mixing mRNA with a mixture of lipids, without first pre-forming the lipids into lipid nanoparticles. In an exemplary process, an ethanolic solution of a mixture of lipids (cationic lipid, phosphatidylethanolamine, cholesterol, and polyethylene glycol-lipid) at a fixed lipid to mRNA ratio were combined with an aqueous buffered solution of target mRNA at an acidic pH under controlled conditions to yield a suspension of uniform LNPs. After ultrafiltration and diafiltration into a suitable diluent system, the resulting nanoparticle suspensions were diluted to final concentration, filtered, and stored frozen at −80° C. until use.
(§1) Lipid nanoparticle formulations 3 were prepared by Process A at a molar ratio of 40:1.5:30:28.5 (Cationic Lipid: DMG-PEG2000: Cholesterol: Helper Lipid) with the cationic lipids and helper lipids disclosed in the tables below. The Polydispersity Index (Pdl) of lipid nanoparticles can be determined by diluting the formulation in 10% trehalose at about 0.1 mg/ml mRNA concentration and then measuring the size on Malvern zetasizer. The lipid nanoparticle size can be obtained with Malvern Zetasizer Nano-ZS.

[2] = Dynamic light scattering of lipid nanoparticles (size, PDI); type: physicochemical
Description: as §1
Dynamic light scattering (DLS) measurements were performed using a Malvern Instruments Zetasizer with a backscattering detector angle of 173° and a 4-mW, 633-nm He—Ne laser (Worcestershire, UK). The samples were analyzed by diluting in 10% Trehalose and measuring the size and Poly dispersity Index (PDI) in an optical grade polystyrene cuvette.

hEPO [3] = experiment: IM EPO expression of LNPs containing new helper lipids (hEPO in serum by ELISA); type: in vivo, female BALB/cJ mice; conditions: for 6-h EPO / 24-h EPO: single IM injection; for 24-h EPO: serum 24 hours post injection; for Normalized Mean EPO expression: helper lipid CL-C formulations, IM, DOPE = 1
Description: Lipid nanoparticles were formulated containing the four lipid components shown below at a ratio of 40:30:28.5:1.5, complexed with a hEPO messenger RNA. • Cationic lipid, 40 mol % • Phospholipid (PEA) helper lipid, 30 mol % • Cholesterol, 28.5 mol % • DMG-PEG-2K (1,2-dimyristoyl-rac-glycero-3-methoxypolyethyleneglycol), 1.5 mol % The cationic lipid component of each formulation was selected from the compounds in the table below: […]
EPO expression studies were conducted with female BALB/cJ mice 6-8 weeks of age. Mice were dosed with […] EPO mRNA in 30 μL of LNPs by a single intramuscular (IM) injection into the gastrocnemius leg muscle. Blood samples were taken 6 and 24 hours post injection and hEPO levels were measured in the blood serum of the mice using an ELISA assay according to the manufacture's protocol. WO2022/099003 A1 also describes an in vivo assay for intramuscular administration (e.g. on page 46, paragraph [00206]).

hEPO [4] = experiment: IV EPO expression of LNPs (tail vein injection); type: in vivo, female BALB/cJ mice; conditions: cationic lipid CL-0137, helper lipid 30 mol %; 0.017 μg EPO mRNA tail vein; 6 hours; DOPE = 1
Description: Lipid nanoparticles were formulated containing the four lipid components shown below at a ratio of 40:30:28.5:1.5, complexed with a hEPO messenger RNA. • Cationic lipid CL-0137, 40 mol % • Helper lipid, 30 mol % • Cholesterol, 28.5 mol % • DMG-PEG-2K (1,2-dimyristoyl-rac-glycero-3-methoxypolyethyleneglycol), 1.5 mol %
EPO expression studies were conducted with female BALB/cJ mice 6-8 weeks of age. Mice were dosed with 0.017 μg EPO mRNA LNPs in a volume of 5 ul by a single tail vein injection. Blood samples were taken 6 hours post injection and hEPO levels were measured in the blood serum of the mice using an ELISA assay according to the manufacture's protocol.

[5] = LNP with cationic lipid CL-A, hEPO mRNA, 40:30:28.5:1.5
[6] = CL-B LNP, serum 6 hours post injection

SMILES	Encapsulation efficiency (EE) [1]	EE ([1]; LNP with cationic lipid CL-B)	EE ([1]; LNP with cationic lipid CL-C)	EE ([1]; LNP with cationic lipid CL-D)	Polydispersity Index (PDI) ([2]; LNP with cationic lipid CL-A)	Size [2, 5]	PDI ([2]; LNP with cationic lipid CL-B)	Size ([2]; LNP with cationic lipid CL-B)	PDI ([2]; LNP with cationic lipid CL-C)	Size ([2]; LNP with cationic lipid CL-C)	PDI ([2]; LNP with cationic lipid CL-D)	Size ([2]; LNP with cationic lipid CL-D)	6-h EPO (hEPO [3]; CL-C LNP)	6-h EPO (hEPO [3]; CL-C LNP, (6-h))	Normalized Mean IV EPO expression (hEPO [4])	6-h EPO (hEPO [3]; [6])	24-h EPO (hEPO [3]; CL-B LNP)	6-h EPO (hEPO [3]; CL-A LNP, 0.1 μg EPO mRNA in 30 μL, serum 6 hours post injection)	Normalized Mean EPO expression (hEPO [3])
CC(C)CCCCOC(=O)CCCCCCC(=O)OCC(COP(=O)(O)OCCN)OC(=O)CCCCCCC(=O)OCCCCC(C)C (stereo not drawn) [Compound 2, O′^1,O^1-(3-(((2-Aminoethoxy)(hydroxy)phosphoryl)oxy)-propane-1,2-diyl) 8-bis(5-methylhexyl) di(octanedioate)]	69%	37%	69%	78%	0.031	137 nm	0.124	97.0 nm	0.102	88.5 nm	0.064	114.3 nm	–	–	–	–	–	–	–
CCCCCCCCCC(CCCCCCCCC)C(=O)OCC(COP(=O)(O)OCCN)OC(=O)C(CCCCCCCCC)CCCCCCCCC (stereo not drawn) [Compound 3, 3-(((2-Aminoethoxy)(hydroxy)phosphoryl)oxy)propane-1,2-diyl bis(2-nonylundecanoate)]	65%	25%	88%	–	0.045	137 nm	0.101	116.4 nm	0.038	111.9 nm	–	–	6.3 ng/mL	13.4 ng/mL	3.32	–	–	–	–
CCCCCCCCC(CCCCC)COC(=O)CCC(=O)OCC(COP(=O)(O)OCCN)OC(=O)CCC(=O)OCC(CCCCC)CCCCCCCC (stereo not drawn) [Compound 4, O,O′-(3-(((2-Aminoethoxy)(hydroxy)phosphoryl)oxy)propane-1,2-diyl) bis(2-pentyldecyl) disuccinate]	85%	86%	87%	–	0.048	125 nm	0.112	104.7 nm	0.123	109.5 nm	–	–	20.1 ng/mL	22.3 ng/mL	2.38	13.7 ng/mL	11.6 ng/mL	–	–
CCCCCCCCC(CCCCC)COC(=O)CCC(=O)OCC(COP(=O)(O)OCCN)OC(=O)CCC(=O)OCC(CCCCC)CCCCCCCC (stereo not drawn) [Compound 5, O,O′-(3-(((2-Aminoethoxy)(hydroxy)phosphoryl)oxy)propane-1,2-diyl) bis(2-pentyldecyl) disuccinate]	91%	90%	88%	–	0.106	121 nm	0.108	98.9 nm	0.047	97.9 nm	–	–	10.1 ng/mL	13.3 ng/mL	1.25	9.8 ng/mL	6.4 ng/mL	–	–
CCCCCCCCC(CCCCCCCC)OC(=O)CCCCCCC(=O)OCC(COP(=O)(O)OCCN)OC(=O)CCCCCCC(=O)OC(CCCCCCCC)CCCCCCCC (stereo not drawn) [Compound 6, 2-Aminoethyl (2,3-bis((8-(heptadecan-9-yloxy)-8-oxooctanoyl)oxy)propyl) phosphate]	90%	94%	94%	94%	0.066	159 nm	0.049	119.9 nm	0.037	108.9 nm	0.063	131.5 nm	27.1 ng/mL	39.9 ng/mL	2.67	28.4 ng/mL	16.2 ng/mL	–	–
CCCCCCCCC(CCCCCCCC)OC(=O)CCCCCCC(=O)OCC(COP(=O)(O)OCCN(C)CCCO)OC(=O)CCCCCCC(=O)OC(CCCCCCCC)CCCCCCCC (stereo not drawn) [Compound 27]	94%	98%	97%	–	0.059	153 nm	0.108	123.9 nm	0.129	97.0 nm	–	–	–	46.9 ng/mL	–	53 ng/mL	–	25.6 ng/mL	–
CCCCCCCCC(CCCCCCCC)OC(=O)CCCCCCC(=O)OC[C@@H](COP(=O)(O)OCCN(C)CCCO)OC(=O)CCCCCCC(=O)OC(CCCCCCCC)CCCCCCCC [Compound 28, 8-Di(heptadecan-9-yl) O′1,O1-((2S)-3-((hydroxy(2-((3-hydroxypropyl)(methyl)amino)ethoxy)phosphoryl)oxy)propane-1,2-diyl) di(octanedioate)]	–	–	–	–	–	–	–	–	–	–	–	–	–	–	–	–	–	–	1.77
CCCCCCCCC(CCCCCCCC)OC(=O)CCCCCCC(=O)OC[C@@H](COP(=O)(O)OCC[N+](C)(C)CCCO)OC(=O)CCCCCCC(=O)OC(CCCCCCCC)CCCCCCCC [Compound 38, (S)-2,3-Bis((8-(heptadecan-9-yloxy)-8-oxooctanoyl)oxy)propyl (2-((3-hydroxypropyl)dimethylammonio)ethyl) phosphate]	–	–	–	–	–	–	–	–	–	–	–	–	–	–	0.8	–	–	–	–
CCCCCCCCC(CCCCCCCC)OC(=O)CCCCCCC(=O)OCC(COP(=O)(O)OCCCN(C)C)OC(=O)CCCCCCC(=O)OC(CCCCCCCC)CCCCCCCC (stereo not drawn) [Compound 60]	–	–	–	–	–	–	–	–	–	–	–	–	–	–	4.61	–	–	–	1.39
CCCCCCCCC(CCCCCCCC)OC(=O)CCCCCCC(=O)OC[C@@H](COP(=O)(O)OCCCCCN(C)C)OC(=O)CCCCCCC(=O)OC(CCCCCCCC)CCCCCCCC [Compound 65, O′^1,O^1-((2S)-3-((((5-(Dimethylamino)pentyl)oxy)(hydroxy)phosphoryl)-oxy)propane-1,2-diyl) 8-di(heptadecan-9-yl) di(octanedioate)]	–	–	–	–	–	–	–	–	–	–	–	–	–	–	2.14	–	–	–	0.825
